Data reported in patent US11130741B2 (Bioimics AB, priority 2016, dated 2021).
Like-named read-outs stand apart in the source and are kept apart here.

Key:
[1] = tested on: Staphylococcus aureus subsp. aureus (ATCC29213); test: MIC, broth microdilution (CLSI), Staphylococcus aureus subsp. aureus ATCC29213; assay type: cell-based; settings: ATCC29213, Table 15, read-out: S. aureus ("wound") (MIC)
[2] = tested on: Escherichia coli (ATCC25922); test: MIC, broth microdilution (CLSI), Escherichia coli ATCC25922
[3] = ATCC25922, read-out: E. coli MIC, Table 15, NI = No inhibition
[4] = ATCC25922, read-out: E. coli MIC

Cl.Cl.Cl.NCCNCC(=O)CNc1cc(C(F)(F)F)cc2c1Nc1ccc(N3CCCC3)cc1S2 [compound 317, 1-((2-aminoethyl)amino)-3-((7-(pyrrolidin-1-yl)-3-(trifluoromethyl)-10H-phenothiazin-1-yl)amino) propan-2-one hydrochloride]
MIC [1]: 64 µg/mL
MIC [2, 3]: 128 µg/mL

Cl.NCCN1CCC(Nc2cc(C(F)(F)F)cc3c2Nc2ccc(N4CCCC(F)C4)cc2S3)CC1 (stereo not drawn) [compound 318, N-(1-(2-aminoethyl)piperidin-4-yl)-7-(3-fluoro-piperidin-1-yl)-3-(trifluoromethyl)-10H-phenothiazin-1-amine hydrochloride]
MIC [1]: 8 µg/mL
MIC [2, 3]: 16 µg/mL

Cl.FC(F)(F)c1cc(NC2CCN(CCN3CCNCC3)CC2)c2c(c1)Sc1cc(Br)ccc1N2 [compound 319, 7-bromo-N-(1-(2-(piperazin-1-yl)ethyl)piperidin-4-yl)-3-(trifluoromethyl)-10H-phenothiazin-1-amine hydrochloride]
MIC [1]: 8 µg/mL
MIC [2, 3]: 8 µg/mL

CC(C)C1CCCN(c2ccc3c(c2)Sc2cc(C(F)(F)F)cc(NC4CCN(CCN)CC4)c2N3)C1.Cl.Cl.Cl (stereo not drawn) [compound 320, N-(1-(2-aminoethyl)piperidin-4-yl)-7-(3-isopropyl-piperidin-1-yl)-3-(trifluoromethyl)-10H-phenothiazin-1-amine hydrochloride]
MIC [1]: 4 µg/mL
MIC [2, 3]: 32 µg/mL

COC1CCN(c2ccc3c(c2)Sc2cc(C(F)(F)F)cc(NC4CCN(CCN)CC4)c2N3)C1.Cl.Cl (stereo not drawn) [compound 321, N-(1-(2-aminoethyl)piperidin-4-yl)-7-(3-methoxy-pyrrolidin-1-yl)-3-(trifluoromethyl)-10H-phenothiazin-1-amine hydrochloride]
MIC [1]: 8 µg/mL
MIC [2, 3]: 32 µg/mL

Cl.Cl.NCCN1CCC(Nc2cc(C(F)(F)F)cc3c2Nc2ccc(N4CCC5(CCCC5)C4)cc2S3)CC1 [compound 322, N-(1-(2-aminoethyl)piperidin-4-yl)-7-(2-azaspiro [4.4]nonan-2-yl)-3-(trifluoromethyl)-10H-phenothiazin-1-amine hydrochloride]
MIC [1]: 1 µg/mL
MIC [2, 3]: 4 µg/mL

CN(C)CCNCC(=O)CNc1cc(C(F)(F)F)cc2c1Nc1ccc(N3CCCC3)cc1S2.Cl.Cl [compound 323, 1-((2-(dimethyl-amino)ethyl)amino)-3-((7-(pyrrolidin-1-yl)-3-(trifluoromethyl)-10H-phenothiazin-1-yl)amino) propan-2-one hydrochloride]
MIC [1]: 128 µg/mL
MIC [2, 4]: > 128 µg/mL

Cl.NCCCNc1cc(C(F)(F)F)cc2c1Nc1ccc(N3CCCC3)cc1S2 [compound 324, N1-(7-(pyrrolidin-1-yl)-3-(trifluoromethyl)-10H-phenothiazin-1-yl)propane-1,3-diamine hydrochloride]
MIC [1]: 4 µg/mL
MIC [2, 3]: 32 µg/mL

COC1CCCN(c2ccc3c(c2)Sc2cc(C(F)(F)F)cc(NC4CCN(CCN)CC4)c2N3)C1.Cl (stereo not drawn) [compound 326, N-(1-(2-aminoethyl)piperidin-4-yl)-7-(3-methoxy-piperidin-1-yl)-3-(trifluoromethyl)-10H-phenothiazin-1-amine hydrochloride]
MIC [1]: 8 µg/mL
MIC [2, 3]: 16 µg/mL

Cl.NCCN1CCC(Nc2cc(C(F)(F)F)cc3c2Nc2ccc(N4CC5CCC4C5)cc2S3)CC1 (stereo not drawn) [compound 327, N-(1-(2-aminoethyl)piperidin-4-yl)-7-(2-azabicyclo [2.2.1]heptan-2-yl)-3-(trifluoromethyl)-10H-phenothiazin-1-amine hydrochloride]
MIC [1]: 1 µg/mL
MIC [2, 3]: 4 µg/mL

CC(=O)Nc1cc(C(F)(F)F)cc2c1Nc1ccc(N3CCCC3)cc1S2.Cl [compound 328, N-(7-(pyrrolidin-1-yl)-3-(trifluoromethyl)-10H-phenothiazin-1-yl)acetamide hydrochloride]
MIC [1]: 16 µg/mL
MIC [2, 3]: > 128 µg/mL

Cc1cc(NC2CCN(CCN)CC2)c2c(c1)Sc1cc(Br)ccc1N2.Cl [compound 329, N-(1-(2-aminoethyl)piperidin-4-yl)-7-bromo-3-methyl-10H-phenothiazin-1-amine hydrochloride]
MIC [1]: 16 µg/mL
MIC [2, 3]: 64 µg/mL

Cl.FC(F)(F)c1cc(NC2CCN(CCN3CCNCC3)CC2)c2c(c1)Sc1cc(N3CCCC3)ccc1N2 [compound 330, N-(1-(2-(piperazin-1-yl)ethyl)piperidin-4-yl)-7-(pyrrolidin-1-yl)-3-(trifluoromethyl)-10H-phenothiazin-1-amine hydrochloride]
MIC [1]: 128 µg/mL
MIC [2, 4]: > 128 µg/mL

Cl.NCCCNc1cc(C(F)(F)F)cc2c1Nc1ccc(Br)cc1S2 [compound 333, N1-(7-bromo-3-(trifluoromethyl)-10H-phenothiazin-1-yl)propane-1,3-diamine hydrochloride]
MIC [1]: 8 µg/mL
MIC [2, 3]: 16 µg/mL

CN(C)c1ccc2c(c1)Sc1cc(C(F)(F)F)cc(NC3CCN(CCN)CC3)c1N2.Cl [compound 334]
MIC [1]: 4 µg/mL
MIC [2, 3]: 16 µg/mL

Cl.Cl.NCCN(CCN)CCN1CCC(Nc2cc(C(F)(F)F)cc3c2Nc2ccc(N4CCCC4)cc2S3)CC1 [compound 335, N1-(2-aminoethyl)-N1-(2-(4-((7-(pyrrolidin-1-yl)-3-(trifluoromethyl)-10H-phenothiazin-1-yl)amino)piperidin-1-yl)ethyl)ethane-1,2-diamine hydrochloride]
MIC [1]: 4 µg/mL
MIC [2, 3]: 64 µg/mL

Cl.NCCN1CCC(Nc2cc(C(F)(F)F)cc3c2Nc2ccc(N4CCC(C(N)=O)C4)cc2S3)CC1 (stereo not drawn) [compound 338, 1-(9-((1-(2-aminoethyl)piperidin-4-yl)amino)-7-(trifluoromethyl)-10H-phenothiazin-3-yl)pyrrolidine-3-carboxamide hydrochloride]
MIC [1]: 4 µg/mL
MIC [2, 3]: 64 µg/mL

CCN(C)c1ccc2c(c1)Sc1cc(C(F)(F)F)cc(NC3CCN(CCN)CC3)c1N2.Cl.Cl [compound 339, N1-(1-(2-aminoethyl)piperidin-4-yl)-N7-ethyl-N7-methyl-3-(trifluoromethyl)-10H-phenothiazine-1,7-diamine hydrochloride]
MIC [1]: 4 µg/mL
MIC [2, 3]: 8 µg/mL

Cl.NCCN1CCC(Nc2cc(C(F)(F)F)cc3c2Nc2ccc(N4CCC5CCCC54)cc2S3)CC1 (stereo not drawn) [compound 340, N-(1-(2-aminoethyl)piperidin-4-yl)-7-(hexahydro-cyclopenta[b]pyrrol-1(2H)-yl)-3-(trifluoromethyl)-10H-phenothiazin-1-amine hydrochloride]
MIC [1]: 4 µg/mL
MIC [2, 3]: 16 µg/mL

CC1CC(C)N(c2ccc3c(c2)Sc2cc(C(F)(F)F)cc(NC4CCN(CCN)CC4)c2N3)C1.Cl.Cl (stereo not drawn) [compound 341, N-(1-(2-aminoethyl)piperidin-4-yl)-7-(2,4-dimethyl-pyrrolidin-1-yl)-3-(trifluoromethyl)-10H-phenothiazin-1-amine hydrochloride]
MIC [1]: 1 µg/mL
MIC [2, 3]: 8 µg/mL

Cl.NC1CCCC(CNc2cc(C(F)(F)F)cc3c2Nc2ccc(Br)cc2S3)C1 (stereo not drawn) [compound 343, N-((3-aminocyclohexyl)methyl)-7-bromo-3-(trifluoromethyl)-10H-phenothiazin-1-amine hydrochloride]
MIC [1]: 16 µg/mL
MIC [2, 3]: 64 µg/mL

Cl.NCCOCCCNc1cc(C(F)(F)F)cc2c1Nc1ccc(Br)cc1S2 [compound 344, N-(3-(2-aminoethoxy)propyl)-7-bromo-3-(trifluoromethyl)-10H-phenothiazin-1-amine hydrochloride]
MIC [1]: 8 µg/mL
MIC [2, 3]: 16 µg/mL

Cl.NCCNCCCNc1cc(C(F)(F)F)cc2c1Nc1ccc(N3CCCC3)cc1S2 [compound 345, N1-(2-aminoethyl)-N3-(7-(pyrrolidin-1-yl)-3-(trifluoromethyl)-10H-phenothiazin-1-yl)propane-1,3-diamine hydrochloride]
MIC [1]: 4 µg/mL
MIC [2, 3]: 32 µg/mL

CC1CC(C)CN(c2ccc3c(c2)Sc2cc(C(F)(F)F)cc(NCCCNCCN)c2N3)C1.Cl (stereo not drawn) [compound 346, N1-(2-aminoethyl)-N3-(7-(3,5-dimethylpiperidin-1-yl)-3-(trifluoromethyl)-10H-phenothiazin-1-yl) propane-1,3-diamine hydrochloride]
MIC [1]: 4 µg/mL
MIC [2, 3]: 16 µg/mL

Cl.NCCNCCCNc1cc(C(F)(F)F)cc2c1Nc1ccc(N3CC4(CCC4)C3)cc1S2 [compound 347, N1-(7-(2-azaspiro[3.3]heptan-2-yl)-3-(trifluoromethyl)-10H-phenothiazin-1-yl)-N3-(2-aminoethyl) propane-1,3-diamine hydrochloride]
MIC [1]: 4 µg/mL
MIC [2, 3]: 8 µg/mL

CCN(C)c1ccc2c(c1)Sc1cc(C(F)(F)F)cc(NCCCNCCN)c1N2.Cl.Cl [compound 348, N1-(3-((2-aminoethyl)amino)propyl)-N7-ethyl-N7-methyl-3-(trifluoromethyl)-10H-phenothiazine-1,7-diamine hydrochloride]
MIC [1]: 4 µg/mL
MIC [2, 3]: 32 µg/mL

CC1CC(C)N(c2ccc3c(c2)Sc2cc(C(F)(F)F)cc(NCCCNCCN)c2N3)C1.Cl (stereo not drawn) [compound 349, N1-(2-aminoethyl)-N3-(7-(2,4-dimethyl-pyrrolidin-1-yl)-3-(trifluoromethyl)-10H-phenothiazin-1-yl)propane-1,3-diamine hydrochloride]
MIC [1]: 4 µg/mL
MIC [2, 3]: 16 µg/mL

Cl.NCCNCCCNc1cc(C(F)(F)F)cc2c1Nc1ccc(N3CC4CCC3C4)cc1S2 (stereo not drawn) [compound 350, N1-(7-(2-azabicyclo[2.2.1]heptan-2-yl)-3-(trifluoromethyl)-10H-phenothiazin-1-yl)-N3-(2-aminoethyl) propane-1,3-diamine hydrochloride]
MIC [1]: 4 µg/mL
MIC [2, 3]: 8 µg/mL

Cl.NCCNCCCNc1cc(C(F)(F)F)cc2c1Nc1ccc(N3CCC4CCCC43)cc1S2 (stereo not drawn) [compound 351, N1-(2-aminoethyl)-N3-(7-(hexahydro-cyclopenta[b]pyrrol-1(2H)-yl)-3-(trifluoromethyl)-10H-phenothiazin-1-yl)propane-1,3-diamine hydrochloride]
MIC [1]: 4 µg/mL
MIC [2, 3]: 16 µg/mL

Cl.NCCN1CCC(Nc2cc(C(F)(F)F)cc3c2Nc2cc(Br)ccc2S3)CC1 [compound 352, N-(1-(2-aminoethyl)piperidin-4-yl)-8-bromo-3-(trifluoromethyl)-10H-phenothiazin-1-amine hydrochloride]
MIC [1]: 4 µg/mL
MIC [2, 3]: 8 µg/mL
